Tests used:
[1] = test system: AMPA/KA-type glutamate receptor; test: Primary screen of the LOPAC 1280 library: Fluo-4 NW calcium entry induced by kainate in cultured cerebrocortical neurons; format: cell-based; settings: three separate screens; 200 μM KA
Method: FIGS. 19a and 19b show the fluorescence response indicating calcium ion entry induced by Kainate (KA) at AMPA-type glutamate receptor channels in cultured neurons. Fluorescent dye loading is accomplished by adding Fluo-4 NW to cells at 37° C. for 20 min and at RT (room temperature) for 10 min. The cells are incubated with compounds to be screened (generally 1 to 10 μM in 1% DMSO) for 2 min, followed by incubation with 200 μM kainate (KA) for 10 min (20 μM KA is used for the second, lower concentration of agonist—not shown here). […] The Z-factor, a statistical indication of the robustness of a high-throughput screen, fluctuated between 0.54-0.73 through the time course. This range of Z-factors is more than adequate for HTS (a value of Z≧0.5 generally indicates a robust screen).
The disclosed methods screen for uncompetitive drugs against a number of targets. […] Primary neurons or cell lines are used that contain (or are genetically engineered to contain) a target molecule on their surface, such as the AMPA/kainate-type glutamate receptors with unedited GluR2 subunits or other molecules that result in intracellular Ca^2+ signaling, such as G-protein-coupled receptors. […] Screening (by quantifying the Ca^2+ response) with two concentrations of agonist for the target, a low concentration and a higher concentration, against chemicals in the library administered at a single micromolar concentration. For these AMPA receptors, kainate can be used as the agonist for HTS because the responses are less desensitizing than those to AMPA. The agonist results in an increase in intracellular Ca^2+ that can be monitored by HTS using the Ca^2+ indicator dye fluo-4 NW.
Using cerebrocortical neurons and calcium-sensitive dyes, as described above, conditions have been optimized for screening for AMPA/Kainate-receptor antagonists. For this purpose, the following experimental parameters were varied: cell density, composition of culture medium, length of cultures, type of calcium-sensitive dye, and condition (temperature and length) of dye loading. The following protocol was established. […]

[2] = test system: rhodanese; test: PDI chaperone activity: aggregation of guanidinium-denatured rhodanese; format: biochemical; settings: 1 μM recombinant PDI
Method: To determine whether S-nitrosylation affects PDI function, PDI chaperone and isomerase activities were monitored. Chaperone activity was assessed in a standard assay by measuring the degree of aggregation of rhodanese induced by guanidinium, as previously described9. Rhodanese aggregation occurred in a time-dependent manner, and incubation with recombinant wild-type PDI, but not dominantnegative PDI (produced by the N-terminal and C-terminal mutant) (Ko, H. S., et al. J. Biol. Chem., 277, 35386-35392, (2002)), suppressed this aggregation by about 80%. […] Thus, S-nitrosylation inhibited the functional activities of PDI. […] Therefore, the inhibitory effect of PDI on the aggregation of synphilin-1 was investigated, as observed in Lewy body inclusions in the brains of PD patients. First, it was tested if PDI could prevent the ubiquitinated, Lewy-body-like inclusions that are formed in the cytosol after synphilin-1 overexpression in cultured SH-SY5Y cells (See FIG. 2c). […]
Chaperone activity of PDI was measured by analyzing the renaturation (refolding) of denatured rhodanese in the presence of 1 μM PDI or its mutant form (Vuori, K., et al. J. Biol. Chem, 267, 7211-7214, (1992); Horibe, T. et al. J. Biol. Chem. 279, 4604-4611 (2004); Martin, J. et al. Nature 352, 36-42 (1991)). […] The aggregation of denatured rhodanese was monitored by the increase in absorbance at 320 nm. […]

[3] = test system: NMDA receptor; test: Excitatory postsynaptic currents (EPSCs) recorded from the hippocampal autapse preparation; format: cell-based; settings: 1 μM
Description: Note that the initial component of the EPSC is mediated by AMPA-sensitive glutamate receptors, whereas a delayed component is mediated by NMDA receptors. […] See Chen, H.-S. V. et al. Neuroscience 86, 1121-1132 (1998).

[4] = test system: brain damage after the ischaemic event; settings: given up to 2 hours after the ischaemic event; cited from earlier work

In the case of `O=[N+]([O-])c1cc2nc(O)c(O)nc2cc1[N+](=O)[O-]` [DNQX], the “scored as hit (significantly blocked calcium entry induced by KA)” value [1] is reported as “scored positively in all three screens”.

In the case of “wild-type PDI: recombinant wild-type protein-disulphide isomerase”, the “suppression of rhodanese aggregation” value [2] is reported as “about 80%”.

For `C[C@]12N[C@H](Cc3ccccc31)c1ccccc12` [MK-801, dizocilpine], the “block of the NMDA receptor-mediated component of the EPSC” value [3] was “complete blockade”.

With `N#Cc1cc2[nH]c(=O)c(=O)[nH]c2cc1[N+](=O)[O-]` [CNQX] the “scored as hit (significantly blocked calcium entry induced by KA)” value [1] was “positively scored”.

In the case of `NS(=O)(=O)c1cccc2c1c([N+](=O)[O-])cc1nc(O)c(O)nc12` [NBQX], the “scored as hit (significantly blocked calcium entry induced by KA)” value [1] is reported as “scored positively in all three screens”.

In the case of `CC12CC3CC(C)(C1)CC(N)(C3)C2` [memantine], the “block of the NMDA receptor-mediated component of the EPSC” value [3] is listed as 10-15% and the “reduction of brain damage” value [4] is listed as “approximately 50%”.
